Data: PMC11003488 (Journal of Enzyme Inhibition and Medicinal Chemistry, 2023)
Like-named read-outs stand apart in the source and are kept apart here.

Legend:
[1] = test system: 786-0; test: NCI-60 SRB growth inhibition, one-dose and five-dose; format: cell-based; settings: Homo sapiens
[2] = test system: IGROV1; test: as above; format: cell-based; settings: Homo sapiens
[3] = test system: SN12C; test: as above; format: cell-based; settings: Homo sapiens
[4] = test system: EKVX; test: as above; format: cell-based; settings: Homo sapiens
[5] = test system: HCT-15; test: as above; format: cell-based; settings: Homo sapiens
[6] = test system: RXF 393; test: as above; format: cell-based; settings: Homo sapiens
[7] = test system: K-562; test: as above; format: cell-based; settings: Homo sapiens
[8] = test system: OVCAR-3; test: as above; format: cell-based; settings: Homo sapiens
[9] = test system: HS 578 T; test: as above; format: cell-based; settings: Homo sapiens
[10] = test system: T-47D; test: as above; format: cell-based; settings: Homo sapiens, T47D
[11] = test system: SF-539; test: as above; format: cell-based; settings: Homo sapiens
[12] = test system: A549/ATCC; test: as above; format: cell-based; settings: Homo sapiens
[13] = test system: A498; test: as above; format: cell-based; settings: Homo sapiens
[14] = test system: U251; test: as above; format: cell-based; settings: Homo sapiens
[15] = test system: NCI-H460; test: as above; format: cell-based; settings: Homo sapiens
[16] = test system: SNB-75; test: as above; format: cell-based; settings: Homo sapiens
[17] = test system: NCI-H322M; test: as above; format: cell-based; settings: Homo sapiens
[18] = test system: MCF7; test: as above; format: cell-based; settings: Homo sapiens
[19] = test system: NCI 60-cell line panel (full panel); test: NCI-60 SRB growth inhibition, full panel mean / MG-MID; format: cell-based, human; settings: for GI50: Homo sapiens, 60 cell
[20] = test system: NCI/ADR-RES; test: NCI-60 SRB growth inhibition, one-dose and five-dose; format: cell-based; settings: Homo sapiens
[21] = test system: HCC-2998; test: as above; format: cell-based; settings: Homo sapiens
[22] = test system: BT-549; test: as above; format: cell-based; settings: Homo sapiens
[23] = test system: OVCAR-8; test: as above; format: cell-based; settings: Homo sapiens, OVCAR-8, read-out: percent growth inhibition
[24] = test system: NCI-H522; test: as above; format: cell-based; settings: Homo sapiens
[25] = test system: SNB-19; test: as above; format: cell-based; settings: Homo sapiens
[26] = test system: PC-3; test: as above; format: cell-based; settings: Homo sapiens
[27] = test system: OVCAR-5; test: as above; format: cell-based; settings: Homo sapiens
[28] = test system: MOLT-4; test: as above; format: cell-based; settings: Homo sapiens
[29] = test system: RPMI-8226; test: as above; format: cell-based; settings: Homo sapiens
[30] = test system: NCI-H23; test: as above; format: cell-based; settings: Homo sapiens
[31] = test system: SW-620; test: as above; format: cell-based; settings: Homo sapiens
[32] = test system: HL-60(TB); test: cells; format: cell-based; settings: Homo sapiens
[33] = test system: CAKI-1; test: NCI-60 SRB growth inhibition, one-dose and five-dose; format: cell-based; settings: Homo sapiens
[34] = test system: SR; test: as above; format: cell-based; settings: Homo sapiens
[35] = test system: HCT-116; test: as above; format: cell-based; settings: Homo sapiens
[36] = test system: SK-MEL-28; test: as above; format: cell-based; settings: Homo sapiens
[37] = test system: UACC-62; test: as above; format: cell-based; settings: Homo sapiens
[38] = test system: TK-10; test: as above; format: cell-based; settings: Homo sapiens
[39] = test system: HOP-92; test: as above; format: cell-based; settings: Homo sapiens
[40] = test system: SF-268; test: as above; format: cell-based; settings: Homo sapiens
[41] = test system: SK-MEL-2; test: as above; format: cell-based; settings: Homo sapiens, SK-MEL-2, read-out: percent growth inhibition
[42] = test system: M14; test: as above; format: cell-based; settings: Homo sapiens
[43] = read-out: percent growth inhibition

`CC(=O)Nc1ccc(CNc2cccc(C(=O)/C=C/c3cccnc3)c2)cc1` [Compound 5b, (E)-N-(4-(((3–(3-(pyridin-3-yl)acryloyl)phenyl)amino)methyl)phenyl)acetamide] was tested, and the GI50 ([1]; 786-0) was 3.43 µM, the inhibition at 10 µM ([1]; 786-0, read-out: percent growth inhibition) was 160% and the GI50 ([2]; IGROV-1) was 2.3 µM. It also gave an inhibition at 10 µM ([2]; IGROV-1, read-out: percent growth inhibition) of 123%, a GI50 [3] of 2.01 µM and an inhibition at 10 µM [3, 43] of 124%. It also gave a GI50 [4] of 4.87 µM, an inhibition at 10 µM [4, 43] of 94.2% and a GI50 ([5]; HCT-15) of 2.05 µM. It also gave an inhibition at 10 µM ([5]; HCT-15, read-out: percent growth inhibition) of 138%, a GI50 ([6]; RXF 393) of 3.09 µM and an inhibition at 10 µM ([6]; RXF 393, read-out: percent growth inhibition) of 194%. The GI50 ([7]; K562) was 2.52 µM, the inhibition at 10 µM ([7]; K562, read-out: percent growth inhibition) was 99.8% and the GI50 ([8]; OVCAR-3) was 2.85 µM. It also gave an inhibition at 10 µM ([8]; OVCAR-3, read-out: percent growth inhibition) of 190%, a GI50 [9] of 2.57 µM and an inhibition at 10 µM [9, 43] of 88.3%. For the same compound, the GI50 [10] was 4.14 µM, the inhibition at 10 µM [10, 43] was 82% and the GI50 ([11]; SF-539) was 6.35 µM. For the same compound, the inhibition at 10 µM ([11]; SF-539, read-out: percent growth inhibition) was 170%, the GI50 ([12]; A549) was 14.9 µM and the inhibition at 10 µM ([12]; A549, read-out: percent growth inhibition) was 27.8%. For the same compound, the GI50 ([13]; A498) was 13.4 µM, the inhibition at 10 µM ([13]; A498, read-out: percent growth inhibition) was 17.5% and the GI50 ([14]; U-251) was 1.9 µM. For the same compound, the inhibition at 10 µM ([14]; U-251, read-out: percent growth inhibition) was 166%, the GI50 ([15]; NCI-H460) was 2.87 µM and the inhibition at 10 µM ([15]; NCI-H460, read-out: percent growth inhibition) was 107%. For the same compound, the GI50 ([16]; SNB-75) was 8.99 µM, the inhibition at 10 µM ([16]; SNB-75, read-out: percent growth inhibition) was 31.8% and the GI50 [17] was 13.7 µM. It also gave an inhibition at 10 µM [17, 43] of 29.6%, a GI50 ([18]; MCF7) of 1.38 µM and an inhibition at 10 µM ([18]; MCF7, read-out: percent growth inhibition) of 178%. The GI50 ([19]; read-out: Full panel GI50 mean) was 4.65 µM, the GI50 ([19]; read-out: Full panel MG-MID GI50) was 4.65 µM and the “Full panel Mean GI %” value ([19]; mean over NCI-60 panel, single dose 10 µM) was 123.16%. It also gave a GI50 [20] of 3.12 µM, an inhibition at 10 µM [20, 43] of 91.1% and a GI50 ([21]; HCC 2998) of 1.82 µM. It also gave an inhibition at 10 µM ([21]; HCC 2998, read-out: percent growth inhibition) of 195%, a GI50 ([22]; BT-549) of 2.78 µM and an inhibition at 10 µM ([22]; BT-549, read-out: percent growth inhibition) of 174%. It also gave an inhibition at 10 µM [23] of 97.1%, a GI50 ([24]; NCI-H522) of 1.67 µM and an inhibition at 10 µM ([24]; NCI-H522, read-out: percent growth inhibition) of 165%. It also gave a GI50 ([25]; SNB-19) of 3.61 µM, an inhibition at 10 µM ([25]; SNB-19, read-out: percent growth inhibition) of 99.1% and a GI50 ([26]; PC-3) of 3.05 µM. For the same compound, the inhibition at 10 µM ([26]; PC-3, read-out: percent growth inhibition) was 98.8%, the GI50 ([27]; OVCAR-5) was 3.44 µM and the inhibition at 10 µM ([27]; OVCAR-5, read-out: percent growth inhibition) was 103%. It also gave a GI50 ([28]; MOLT-4) of 2.88 µM, an inhibition at 10 µM ([28]; MOLT-4, read-out: percent growth inhibition) of 128% and a GI50 ([29]; RPMI-8226) of 1.92 µM. For the same compound, the inhibition at 10 µM ([29]; RPMI-8226, read-out: percent growth inhibition) was 125%, the GI50 ([30]; NCI-H23) was 3.22 µM and the inhibition at 10 µM ([30]; NCI-H23, read-out: percent growth inhibition) was 148%. It also gave a GI50 ([31]; SW-620) of 1.83 µM, an inhibition at 10 µM ([31]; SW-620, read-out: percent growth inhibition) of 169% and a GI50 ([32]; HL-60) of 2.78 µM. For the same compound, the inhibition at 10 µM ([32]; HL-60, read-out: percent growth inhibition) was 144%, the GI50 ([33]; CAKI-1) was 12.2 µM and the inhibition at 10 µM ([33]; CAKI-1, read-out: percent growth inhibition) was 95.9%. It also gave a GI50 [34] of 2.01 µM, a GI50 ([35]; HCT-116, HCT-116, five-dose screening) of 1.8 µM and an inhibition at 10 µM ([35]; HCT-116, read-out: percent growth inhibition) of 196%. It also gave a GI50 ([36]; SK-MEL-28) of 1.96 µM, an inhibition at 10 µM ([36]; SK-MEL-28, read-out: percent growth inhibition) of 166% and a GI50 ([37]; UACC-62) of 5.03 µM. It also gave an inhibition at 10 µM ([37]; UACC-62, read-out: percent growth inhibition) of 162%, a GI50 ([38]; TK-10) of 2.53 µM and an inhibition at 10 µM ([38]; TK-10, read-out: percent growth inhibition) of 85.3%. It also gave a GI50 ([39]; HOP-92) of 8.47 µM, an inhibition at 10 µM ([39]; HOP-92, read-out: percent growth inhibition) of 68.5% and a GI50 ([40]; SF-268) of 13.6 µM. The inhibition at 10 µM ([40]; SF-268, read-out: percent growth inhibition) was 88.6%, the inhibition at 10 µM [41] was 52.7% and the GI50 ([42]; M14) was 2.91 µM. The inhibition at 10 µM ([42]; M14, read-out: percent growth inhibition) was 141%.
